Legend:
Format in all cases: in vivo
[1] = system: canarygrass (Phalaris minor); experiment: Test B postemergence plant response; conditions: Postemergence
Method in brief: (§1)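 Visual ratings from 0 (no effect) to 100 (complete control), made against controls 13–15 days after treatment, kept in a greenhouse. Compounds were applied postemergence to potted plants at the 1- to 4-leaf stage (2–18 cm).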

[2] = system: windgrass (Apera spica-venti); experiment: Test B postemergence plant response; conditions: Postemergence, scale 0 (no effect) to 100 (complete control)
Method in brief: as §1

[3] = system: chickweed (Stellaria media); experiment: Test B postemergence plant response; conditions: Postemergence
Method in brief: as §1

[4] = system: winter barley (Hordeum vulgare); experiment: Test B postemergence plant response; conditions: Postemergence
Method in brief: as §1

[5] = system: large crabgrass (Digitaria sanguinalis); experiment: Test B pre-/postemergence plant response
Method in brief: (§2)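 Test compounds, formulated in a non-phytotoxic solvent mixture with surfactant, are applied to the soil surface (loam and sand blend) right after seeding, or sprayed over plants at the 1- to 4-leaf stage grown in peat moss/vermiculite medium. After 13 to 15 days under glasshouse conditions, each species is scored visually from 0 (no effect) to 100 (complete control) against controls.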

[6] = system: Italian ryegrass (Lolium multiflorum); experiment: Test B pre-/postemergence plant response
Method in brief: as §2

[7] = system: yellow nutsedge (Cyperus esculentus); experiment: Test B pre-/postemergence plant response
Method in brief: as §2

[8] = system: ragweed (common ragweed, Ambrosia elatior); experiment: Test B pre-/postemergence plant response
Method in brief: as §2

[9] = system: johnsongrass (Sorghum halepense); experiment: Test B pre-/postemergence plant response
Method in brief: as §2

[10] = system: blackgrass (Alopecurus myosuroides); experiment: Test B pre-/postemergence plant response
Method in brief: as §2

[11] = system: lambsquarters (Chenopodium album); experiment: Test B pre-/postemergence plant response
Method in brief: as §2

[12] = system: woolly cupgrass (Eriochloa villosa); experiment: Test B pre-/postemergence plant response
Method in brief: as §2

[13] = system: bermudagrass (Cynodon dactylon); experiment: Test B pre-/postemergence plant response
Method in brief: as §2

corn (Zea mays) = experiment: Test B pre-/postemergence plant response
Method in brief: as §2

soybean (Glycine max) = experiment: Test B pre-/postemergence plant response
Method in brief: as §2

[14] = system: Surinam grass (Brachiaria decumbens); experiment: Test B pre-/postemergence plant response
Method in brief: as §2

[15] = system: velvetleaf (Abutilon theophrasti); experiment: Test B pre-/postemergence plant response
Method in brief: as §2

wild oat (Avena fatua) = experiment: Test B pre-/postemergence plant response
Method in brief: as §2

[16] = 31 g ai/ha, scale 0 to 100 (0 no effect, 100 complete control)
[17] = 62 g ai/ha, scale 0 (no effect) to 100 (complete control), 13 to 15 days
[18] = 125 g ai/ha, visual rating after 13 to 15 days, scale 0 (no effect) to 100 (complete control)
[19] = 250 g ai/ha, Preemergence, 0 to 100 scale
[20] = Postemergence, 31 g ai/ha, scale 0 to 100 (0 no effect, 100 complete control)
[21] = Postemergence, 62 g ai/ha, scale 0 (no effect) to 100 (complete control), 13 to 15 days
[22] = Postemergence, 125 g ai/ha, visual rating after 13 to 15 days, scale 0 (no effect) to 100 (complete control)
[23] = Postemergence, 250 g ai/ha, scale 0 to 100
[24] = Preemergence, 31 g ai/ha, scale 0 to 100 (0 no effect, 100 complete control)
[25] = Preemergence, 62 g ai/ha, scale 0 to 100, 0 no effect, 100 complete control
[26] = Preemergence, 125 g ai/ha, 0 to 100 scale

O=C1CCCC(O)=C1C(=O)c1cnc(-c2cccc(Cl)c2)n(-c2ccccc2)c1=O [Compound 34]
Plant response rating, Canarygrass [1, 16]: 5 | Plant response rating, Canarygrass [1, 17]: 50 | Plant response rating, Canarygrass [1, 18]: 50 | Canarygrass plant response rating ([1]; 250 g ai/ha, scale 0 to 100): 50 | Plant response rating, Windgrass ([2]; 62 g ai/ha, 13 to 15 days): 40 | Plant response rating, Windgrass ([2]; 125 g ai/ha, visual rating after 13 to 15 days): 50 | Plant response rating, Chickweed [3, 16]: 50 | Plant response rating, Chickweed [3, 17]: 75 | Plant response rating, Chickweed [3, 18]: 98 | Chickweed plant response rating ([3]; 250 g ai/ha, scale 0 to 100): 100 | Plant response rating, Barley [4, 16]: 0 | Plant response rating, Barley [4, 17]: 30 | Plant response rating, Barley [4, 18]: 30 | Barley plant response rating ([4]; 250 g ai/ha, scale 0 to 100): 30 | Plant response rating, Crabgrass, Large [5, 19]: 100 | Plant response rating, Crabgrass, Large [5, 20]: 80 | Plant response rating, Crabgrass, Large [5, 21]: 85 | Plant response rating, Crabgrass, Large [5, 22]: 95 | Crabgrass, Large plant response rating [5, 23]: 98 | Plant response rating, Crabgrass, Large [5, 24]: 55 | Plant response rating, Crabgrass, Large [5, 25]: 100 | Crabgrass, Large plant response rating [5, 26]: 100 | Plant response rating, Ryegrass, Italian [6, 19]: 10 | Plant response rating, Ryegrass, Italian [6, 21]: 10 | Plant response rating, Ryegrass, Italian [6, 22]: 20 | Plant response rating, Ryegrass, Italian [6, 24]: 0 | Plant response rating, Ryegrass, Italian [6, 25]: 0 | Ryegrass, Italian plant response rating [6, 26]: 5 | Plant response rating, Nutsedge, Yellow [7, 19]: 90 | Plant response rating, Nutsedge, Yellow [7, 21]: 25 | Plant response rating, Nutsedge, Yellow [7, 22]: 55 | Plant response rating, Nutsedge, Yellow [7, 24]: 10 | Plant response rating, Nutsedge, Yellow [7, 25]: 45 | Nutsedge, Yellow plant response rating [7, 26]: 75 | Plant response rating, Ragweed [8, 19]: 90 | Plant response rating, Ragweed [8, 21]: 85 | Plant response rating, Ragweed [8, 22]: 95 | Plant response rating, Ragweed [8, 24]: 75 | Plant response rating, Ragweed [8, 25]: 80 | Ragweed plant response rating [8, 26]: 90 | Plant response rating, Johnsongrass [9, 19]: 100 | Plant response rating, Johnsongrass [9, 21]: 90 | Plant response rating, Johnsongrass [9, 22]: 95 | Johnsongrass plant response rating [9, 23]: 100 | Plant response rating, Johnsongrass [9, 24]: 20 | Plant response rating, Johnsongrass [9, 25]: 75 | Johnsongrass plant response rating [9, 26]: 98 | Plant response rating, Blackgrass [10, 19]: 50 | Plant response rating, Blackgrass [10, 20]: 0 | Plant response rating, Blackgrass [10, 21]: 5 | Plant response rating, Blackgrass [10, 22]: 10 | Blackgrass plant response rating [10, 23]: 40 | Plant response rating, Blackgrass [10, 24]: 0 | Plant response rating, Blackgrass [10, 25]: 5 | Blackgrass plant response rating [10, 26]: 50 | Plant response rating, Lambsquarters [11, 19]: 100 | Plant response rating, Lambsquarters [11, 21]: 98 | Plant response rating, Lambsquarters [11, 22]: 100 | Lambsquarters plant response rating [11, 23]: 100 | Plant response rating, Lambsquarters [11, 24]: 100 | Plant response rating, Lambsquarters [11, 25]: 100 | Lambsquarters plant response rating [11, 26]: 100 | Plant response rating, Cupgrass, Woolly [12, 19]: 100 | Plant response rating, Cupgrass, Woolly [12, 20]: 80 | Plant response rating, Cupgrass, Woolly [12, 21]: 80 | Plant response rating, Cupgrass, Woolly [12, 22]: 90 | Cupgrass, Woolly plant response rating [12, 23]: 95 | Plant response rating, Cupgrass, Woolly [12, 24]: 100 | Plant response rating, Cupgrass, Woolly [12, 25]: 100 | Cupgrass, Woolly plant response rating [12, 26]: 100 | Plant response rating, Bermudagrass [13, 19]: 100 | Plant response rating, Bermudagrass [13, 20]: 75 | Plant response rating, Bermudagrass [13, 21]: 95 | Plant response rating, Bermudagrass [13, 22]: 95 | Bermudagrass plant response rating [13, 23]: 98 | Plant response rating, Bermudagrass [13, 24]: 100 | Plant response rating, Bermudagrass [13, 25]: 100 | Bermudagrass plant response rating [13, 26]: 100 | Plant response rating, Corn (corn (Zea mays); [19]): 0 | Plant response rating, Corn (corn (Zea mays); [20]): 0 | Plant response rating, Corn (corn (Zea mays); [21]): 0 | Plant response rating, Corn (corn (Zea mays); [22]): 45 | Corn plant response rating (corn (Zea mays); [23]): 50 | Plant response rating, Corn (corn (Zea mays); [24]): 0 | Plant response rating, Corn (corn (Zea mays); [25]): 0 | Corn plant response rating (corn (Zea mays); [26]): 0 | Plant response rating, Soybean (soybean (Glycine max); [19]): 80 | Plant response rating, Soybean (soybean (Glycine max); [21]): 95 | Plant response rating, Soybean (soybean (Glycine max); [22]): 95 | Plant response rating, Soybean (soybean (Glycine max); [24]): 0 | Plant response rating, Soybean (soybean (Glycine max); [25]): 45 | Soybean plant response rating (soybean (Glycine max); [26]): 65 | Plant response rating, Surinam Grass [14, 19]: 90 | Plant response rating, Surinam Grass [14, 21]: 75 | Plant response rating, Surinam Grass [14, 22]: 80 | Plant response rating, Surinam Grass [14, 24]: 5 | Plant response rating, Surinam Grass [14, 25]: 60 | Surinam Grass plant response rating [14, 26]: 65 | Plant response rating, Velvetleaf [15, 19]: 100 | Plant response rating, Velvetleaf [15, 21]: 95 | Plant response rating, Velvetleaf [15, 22]: 98 | Plant response rating, Velvetleaf [15, 24]: 75 | Plant response rating, Velvetleaf [15, 25]: 85 | Velvetleaf plant response rating [15, 26]: 95 | Plant response rating, Oat, Wild (wild oat (Avena fatua); [19]): 60 | Plant response rating, Oat, Wild (wild oat (Avena fatua); [21]): 50 | Plant response rating, Oat, Wild (wild oat (Avena fatua); [22]): 60 | Plant response rating, Oat, Wild (wild oat (Avena fatua); [24]): 10 | Plant response rating, Oat, Wild (wild oat (Avena fatua); [25]): 10 | Oat, Wild plant response rating (wild oat (Avena fatua); [26]): 30

From patent US8952024B2, “Herbicidal pyrimidone derivatives” (E I du Pont de Nemours and Company, priority 2009, dated 2015)
